“And” between values parts separate entries of the source, which are not always exact repeats. Equal values may be shown once.
System: BDF1 mice, Adenocarcinoma 755 s.c., tumor weight T/C
Assay: NCI In Vivo Anticancer Drug Screen. Data for tumor model Adenocarcinoma 755 (subcutaneous) in B6D2F1 (BDF1) mice
Conditions: endpoint: mean tumor weight, higher = larger tumour
In short: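 In vivo antitumor screen on a transplantable tumor line. Result equals the measure in compound-treated animals divided by the same measure in vehicle controls.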

[1] = dose: 9.0 mg/kg/injection, schedule: Q01DX011 (sc), vehicle: steriod suspending solution
[2] = dose: 18.0 mg/kg/injection, schedule: Q01DX011 (sc), vehicle: steriod suspending solution

**Q.** How did the T/C (dose: 4.41 mg/kg/injection, schedule: Q01DX011 (ip), vehicle: carboxymethylcellulose (CMC)) turn out when `CNC=O` was run?
**A.** 107 % of control

**Q.** What about the T/C (dose: 8.82 mg/kg/injection, schedule: Q01DX011 (ip), vehicle: carboxymethylcellulose (CMC)) of the same molecule?
**A.** 94 % of control

**Q.** And the T/C (dose: 17.65 mg/kg/injection, schedule: Q01DX011 (ip), vehicle: carboxymethylcellulose (CMC))?
**A.** 110 % of control

**Q.** And the T/C (dose: 42.88 mg/kg/injection, schedule: Q01DX011 (ip), vehicle: carboxymethylcellulose (CMC))?
**A.** 60 % of control

**Q.** And the T/C (dose: 45.0 mg/kg/injection, schedule: Q01DX011 (ip), vehicle: carboxymethylcellulose (CMC))?
**A.** 113 % of control

**Q.** And the T/C (dose: 85.75 mg/kg/injection, schedule: Q01DX011 (ip), vehicle: carboxymethylcellulose (CMC))?
**A.** 78 % of control

**Q.** What about the T/C (dose: 90.0 mg/kg/injection, schedule: Q01DX011 (ip), vehicle: carboxymethylcellulose (CMC)) of the same molecule?
**A.** 99 % of control

**Q.** What about the T/C (dose: 93.67 mg/kg/injection, schedule: Q01DX011 (ip), vehicle: carboxymethylcellulose (CMC)) of the same molecule?
**A.** 104 % of control

**Q.** What about the T/C (dose: 137.2 mg/kg/injection, schedule: Q01DX011 (ip), vehicle: carboxymethylcellulose (CMC)) of the same molecule?
**A.** 70 % of control

**Q.** And the T/C (dose: 144.0 mg/kg/injection, schedule: Q01DX011 (ip), vehicle: carboxymethylcellulose (CMC))?
**A.** 86 % of control

**Q.** And the T/C (dose: 180.0 mg/kg/injection, schedule: Q01DX011 (ip), vehicle: carboxymethylcellulose (CMC))?
**A.** 98 % of control

**Q.** What about the T/C (dose: 187.35 mg/kg/injection, schedule: Q01DX011 (ip), vehicle: carboxymethylcellulose (CMC)) of the same molecule?
**A.** 100 % of control and 111 % of control

**Q.** And the T/C (dose: 200.0 mg/kg/injection, schedule: Q01DX011 (ip), vehicle: saline)?
**A.** 31 % of control

**Q.** What about the T/C (dose: 228.6 mg/kg/injection, schedule: Q01DX011 (ip), vehicle: carboxymethylcellulose (CMC)) of the same molecule?
**A.** 65 % of control

**Q.** What about the T/C (dose: 240.0 mg/kg/injection, schedule: Q01DX011 (ip), vehicle: carboxymethylcellulose (CMC)) of the same molecule?
**A.** 101 % of control

**Q.** And the T/C (dose: 250.0 mg/kg/injection, schedule: Q01DX011 (ip), vehicle: saline)?
**A.** 14 % of control

**Q.** And the T/C (dose: 300.0 mg/kg/injection, schedule: Q01DX011 (ip), vehicle: saline)?
**A.** 1 % of control

**Q.** What about the T/C (dose: 343.0 mg/kg/injection, schedule: Q01DX011 (ip), vehicle: carboxymethylcellulose (CMC)) of the same molecule?
**A.** 20 % of control and 30 % of control

**Q.** And the T/C (dose: 360.0 mg/kg/injection, schedule: Q01DX011 (ip), vehicle: carboxymethylcellulose (CMC))?
**A.** 30 % of control and 35 % of control

**Q.** And the T/C (dose: 374.7 mg/kg/injection, schedule: Q01DX011 (ip), vehicle: carboxymethylcellulose (CMC))?
**A.** 103 % of control

**Q.** `ClCCn1cnc2c(SCc3ccccc3Cl)ncnc21` was tested. Which T/C (dose: 0.5 mg/kg/injection, schedule: Q01DX011 (ip), vehicle: other) did it give?
**A.** 91 % of control

**Q.** And the T/C (dose: 0.5 mg/kg/injection, schedule: Q01DX011 (oral), vehicle: other)?
**A.** 74 % of control

**Q.** And the T/C (dose: 1.0 mg/kg/injection, schedule: Q01DX011 (ip), vehicle: other)?
**A.** 84 % of control

**Q.** What about the T/C (dose: 2.0 mg/kg/injection, schedule: Q01DX011 (ip), vehicle: other) of the same molecule?
**A.** 42 % of control and 47 % of control

**Q.** And the T/C (dose: 2.0 mg/kg/injection, schedule: Q01DX011 (oral), vehicle: other)?
**A.** 109 % of control

**Q.** What about the T/C (dose: 4.0 mg/kg/injection, schedule: Q01DX011 (oral), vehicle: other) of the same molecule?
**A.** 75 % of control and 81 % of control

**Q.** And the T/C (dose: 8.0 mg/kg/injection, schedule: Q01DX011 (ip), vehicle: other)?
**A.** 3 % of control

**Q.** What about the T/C (dose: 8.0 mg/kg/injection, schedule: Q01DX011 (oral), vehicle: other) of the same molecule?
**A.** 25 % of control and 32 % of control

**Q.** And the T/C (dose: 15.0 mg/kg/injection, schedule: Q01DX011 (oral), vehicle: other)?
**A.** 5 % of control and 13 % of control

**Q.** And the T/C (dose: 30.0 mg/kg/injection, schedule: Q01DX011 (oral), vehicle: other)?
**A.** 1 % of control

**Q.** And the T/C (dose: 100.0 mg/kg/injection, schedule: Q01DX011 (ip), vehicle: carboxymethylcellulose (CMC))?
**A.** 3 % of control

**Q.** For `CC(=O)OCC(=O)[C@@]1(O)CC[C@H]2[C@@H]3C[C@H](C)C4=CC(=O)C=C[C@]4(C)[C@@]3(F)[C@@H](O)C[C@@]21C`, which T/C (dose: 0.06 mg/kg/injection, schedule: Q01DX011 (sc), vehicle: steriod suspending solution) is on record?
**A.** 101 % of control

**Q.** What about the T/C (dose: 0.13 mg/kg/injection, schedule: Q01DX011 (sc), vehicle: steriod suspending solution) of the same molecule?
**A.** 87 % of control

**Q.** And the T/C (dose: 4.0 mg/kg/injection, schedule: Q01DX011 (sc), vehicle: steriod suspending solution)?
**A.** 49 % of control

**Q.** And the T/C (dose: 5.0 mg/kg/injection, schedule: Q01DX011 (sc), vehicle: steriod suspending solution)?
**A.** 48 % of control

**Q.** What about the T/C [1] of the same molecule?
**A.** 37 % of control

**Q.** And the T/C (dose: 10.0 mg/kg/injection, schedule: Q01DX011 (sc), vehicle: steriod suspending solution)?
**A.** 34 % of control

**Q.** And the T/C [2]?
**A.** 37 % of control and 51 % of control

**Q.** And the T/C (dose: 20.0 mg/kg/injection, schedule: Q01DX011 (sc), vehicle: steriod suspending solution)?
**A.** 21 % of control

**Q.** And the T/C (dose: 37.0 mg/kg/injection, schedule: Q01DX011 (sc), vehicle: steriod suspending solution)?
**A.** 13 % of control and 22 % of control

**Q.** And the T/C (dose: 75.0 mg/kg/injection, schedule: Q01DX011 (sc), vehicle: steriod suspending solution)?
**A.** 15 % of control

**Q.** How did the T/C (dose: 3.0 mg/kg/injection, schedule: Q01DX011 (ip), vehicle: methylcellulose (MC)) turn out when `CCc1nc(N)nc(N)c1-c1ccc(Cl)cc1` was run?
**A.** 52 % of control

**Q.** What about the T/C (dose: 6.0 mg/kg/injection, schedule: Q01DX011 (ip), vehicle: methylcellulose (MC)) of the same molecule?
**A.** 38 % of control

**Q.** What about the T/C (dose: 6.25 mg/kg/injection, schedule: Q01DX011 (ip), vehicle: carboxymethylcellulose (CMC)) of the same molecule?
**A.** 77 % of control

**Q.** What about the T/C (dose: 11.85 mg/kg/injection, schedule: Q01DX011 (ip), vehicle: carboxymethylcellulose (CMC)) of the same molecule?
**A.** 82 % of control

**Q.** And the T/C (dose: 12.0 mg/kg/injection, schedule: Q01DX011 (ip), vehicle: methylcellulose (MC))?
**A.** 49 % of control

**Q.** And the T/C (dose: 12.5 mg/kg/injection, schedule: Q01DX011 (ip), vehicle: carboxymethylcellulose (CMC))?
**A.** 99 % of control

**Q.** And the T/C (dose: 23.7 mg/kg/injection, schedule: Q01DX011 (ip), vehicle: carboxymethylcellulose (CMC))?
**A.** 116 % of control

**Q.** And the T/C (dose: 25.0 mg/kg/injection, schedule: Q01DX011 (ip), vehicle: carboxymethylcellulose (CMC))?
**A.** 115 % of control

**Q.** What about the T/C (dose: 25.0 mg/kg/injection, schedule: Q01DX011 (ip), vehicle: methylcellulose (MC)) of the same molecule?
**A.** 62 % of control

**Q.** And the T/C (dose: 47.4 mg/kg/injection, schedule: Q01DX011 (ip), vehicle: carboxymethylcellulose (CMC))?
**A.** 105 % of control

**Q.** And the T/C (dose: 50.0 mg/kg/injection, schedule: Q01DX011 (ip), vehicle: carboxymethylcellulose (CMC))?
**A.** 72 % of control

**Q.** And the T/C (dose: 50.0 mg/kg/injection, schedule: Q01DX011 (ip), vehicle: methylcellulose (MC))?
**A.** 71 % of control

**Q.** And the T/C (dose: 62.5 mg/kg/injection, schedule: Q01DX011 (ip), vehicle: methylcellulose (MC))?
**A.** 43 % of control

**Q.** How did the T/C (dose: 100.0 mg/kg/injection, schedule: Q01DX011 (ip), vehicle: saline) turn out when `O=C(Nc1ncnc2nc[nH]c12)C(Cl)Cl` was run?
**A.** 77 % of control

**Q.** `CC(=O)OCC(=O)[C@@]1(O)CC[C@H]2[C@@H]3CCC4=CC(=O)C=C[C@]4(C)[C@@]3(F)[C@@H](O)C[C@@]21C` was tested. Which T/C (dose: 0.07 mg/kg/injection, schedule: Q01DX011 (sc), vehicle: steriod suspending solution) did it give?
**A.** 90 % of control

**Q.** And the T/C (dose: 0.14 mg/kg/injection, schedule: Q01DX011 (sc), vehicle: steriod suspending solution)?
**A.** 77 % of control

**Q.** And the T/C (dose: 0.28 mg/kg/injection, schedule: Q01DX011 (sc), vehicle: steriod suspending solution)?
**A.** 41 % of control

**Q.** What about the T/C (dose: 1.12 mg/kg/injection, schedule: Q01DX011 (sc), vehicle: steriod suspending solution) of the same molecule?
**A.** 54 % of control

**Q.** What about the T/C (dose: 2.25 mg/kg/injection, schedule: Q01DX011 (sc), vehicle: steriod suspending solution) of the same molecule?
**A.** 38 % of control

**Q.** What about the T/C (dose: 4.5 mg/kg/injection, schedule: Q01DX011 (sc), vehicle: steriod suspending solution) of the same molecule?
**A.** 26 % of control and 38 % of control

**Q.** What about the T/C [1] of the same molecule?
**A.** 21 % of control

**Q.** And the T/C [2]?
**A.** 17 % of control

**Q.** What about the T/C (dose: 24.0 mg/kg/injection, schedule: Q01DX011 (sc), vehicle: steriod suspending solution) of the same molecule?
**A.** 9 % of control and 23 % of control

**Q.** What about the T/C (dose: 25.0 mg/kg/injection, schedule: Q01DX011 (sc), vehicle: steriod suspending solution) of the same molecule?
**A.** 23 % of control and 28 % of control

**Q.** What about the T/C (dose: 36.0 mg/kg/injection, schedule: Q01DX011 (sc), vehicle: steriod suspending solution) of the same molecule?
**A.** 11 % of control

**Q.** And the T/C (dose: 50.0 mg/kg/injection, schedule: Q01DX011 (sc), vehicle: steriod suspending solution)?
**A.** 13 % of control and 24 % of control

**Q.** What about the T/C (dose: 100.0 mg/kg/injection, schedule: Q01DX011 (sc), vehicle: steriod suspending solution) of the same molecule?
**A.** 9 % of control and 11 % of control

**Q.** Which T/C (dose: 5.0 mg/kg/injection, schedule: Q01DX011 (ip), vehicle: saline) does the source give for `OCCOCCN1CCN(CCCN2c3ccccc3Sc3ccc(C(F)(F)F)cc32)CC1` here?
**A.** 54 % of control and 75 % of control

**Q.** What about the T/C (dose: 20.0 mg/kg/injection, schedule: Q01DX011 (ip), vehicle: saline) of the same molecule?
**A.** 12 % of control and 29 % of control

— PubChem BioAssay AID180 (DTP/NCI, 2004)
